Assay [1] has as its system pancreatic afferent neurons / spinal segments T8-T10. The assay can be described thus: c-FOS expression in spinal cord segments after pancreatic intraductal injection. Format: in vivo, rat. The protocol:
Intraductal (pancreatic duct) injection. To administer the necessary peptides directly into the rat pancreatic duct we followed a modified protocol, previously described by Kim et al. (1996). In brief, rats were anesthetized i.p. with nembutal sodium (Abbot Laboratories, Chicago, Ill.) (50 mg/kg body weight). The peritoneum was incised to expose the duodenum and the duodenal loop was pulled out. The pancreatic duct entering the duodenum was identified under dissecting microscope and a small niche was made into the duct with a 30-gauge needle. A polyethylene 10 tubing (0.61 mm outer diameter) (Becton Dickinson and Company, Franklin Lakes, N.J.) was guided into the duct and tied to secure its position. The common bile duct was ligated close to the liver to prevent entry of the injected substance into the liver. Similarly the duct was ligated near its entry into the duodenum. The position of the tube into the pancreatic duct was confirmed by freely flowing bile through the tubing. […] Thirty minutes later Capsaicin 0.5 mg/kg (total volume 500 μl) or vehicle (1×PBS, 10% ETOH, 1% Tween) was injected to half of the AcPep or CoPep injected rats. Three rats were included in each treatment group (n=3 for number of experiments). The tubing was carefully removed and bile flow from the liver into the duodenum was re-established. The abdominal cavity was closed with sutures. Rats were sacrificed 2.5 hrs after the initial injection.
C-fos staining. Rats were anesthetized with sodium pentobarbital (50 mg/kg i.p.) and perfused with 200 mls PBS followed by 500 mls ice-cold freshly prepared 4% paraformaldehyde in PBS. Spinal cord (level T5-T13) was removed, post-fixed in 4% paraformaldehyde for 18 hrs at 4° C. and placed in PBS (pH 7.4) containing 30% sucrose for 24 hrs at 4° C. Frozen sections (40 μm) were cut on a cryostat and stored as floating sections in PBS at 4° C. Every third section was stained for c-fos with a rabbit polyclonal serum, 1:1000 dilution, (c-fos, Ab-5, Oncogene Research Products) utilizing manufacturer's protocol. Antibody staining was visualized using a biotinylated secondary antisera and Vectastain ABC peroxidase kit with DAB as substrate. Sections were mounted on Superfrost Plus slides (VWR Scientific, West Chester, Pa.) and dehydrated. The number of c-FOS immunoreactive (IR) neurons were counted in 10 randomly chosen sections per segment under brightfield illumination and then averaged.
Statistics. Release data are presented as the mean± standard error of the mean (SEM) of wells from three separate experiments. […] Intraductal injection studies were analyzed using a repeated measure ANOVA and individual means were compared using a Newman-Keuls multiple comparison test. […]

A further assay concerns the target T1, PAR-1 (Homo sapiens, UniProt P25116).
T1 sequence (P25116 22-425): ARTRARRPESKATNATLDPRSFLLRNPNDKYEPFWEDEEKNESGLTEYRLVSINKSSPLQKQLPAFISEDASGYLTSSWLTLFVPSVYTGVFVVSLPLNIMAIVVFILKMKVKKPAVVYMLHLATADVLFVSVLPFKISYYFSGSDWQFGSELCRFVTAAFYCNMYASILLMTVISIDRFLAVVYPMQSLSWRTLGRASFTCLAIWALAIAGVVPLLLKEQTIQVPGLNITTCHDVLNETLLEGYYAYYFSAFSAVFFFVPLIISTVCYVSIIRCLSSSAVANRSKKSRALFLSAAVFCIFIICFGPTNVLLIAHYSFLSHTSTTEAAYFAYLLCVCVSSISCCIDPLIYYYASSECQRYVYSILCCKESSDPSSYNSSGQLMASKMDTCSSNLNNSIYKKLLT
To be noted: Blackhart et al. 1996; cited from earlier work.

“Also recorded” adds a separate entry of the source.

As to “SLIGRL (PEPTIDE (1)..(6) PAR-2 activating peptide; listed as Rattus sp.) [AcPep]”, the “c-FOS IR neurons in segments T8-T10, peptide alone” value in assay [1] (100 μM infused into the pancreatic duct, 2.5 hours, compared to CoPep) is reported as “more c-FOS IR neurons; also recorded: does increase c-FOS expression”. In assay [1] (intraductal injection of AcPep 10 μM, 2.5 hours later, compared to control rats), the “c-FOS expression in spinal segments T8-T10, peptide alone” value is “significantly increased”. In assay [1] (peptide 100 μM intraductal, followed 30 min later by Capsaicin 0.5 mg/kg, 2.5 hours), the “Capsaicin-evoked c-FOS expression in segments T8-T10” value is listed as “more c-FOS; also recorded: enhanced Capsaicin-evoked c-FOS expression”. The “activation of PAR-1” value with PAR-1 was “does not activate PAR-1”.

These data come from patent publication US7541156B1, “Method of identifying antinociceptive compounds using protease activated receptor-2” (priority 2000, dated 2009).
